Experimental data from patent US20240252488A1 (KOREA RESEARCH INSTITUTE OF CHEMICAL TECHNOLOGY, priority 2020, published 2024).

Legend:
MLKL [1] = target: T1, MLKL (Homo sapiens, UniProt Q8NB16); assay: MLKL degradation assay in HepG2 cell line (western blot); type: cell-based; parameters: endogenous in cells; host or cells: HepG2 or HaCaT; settings: cell line not given; for Degradation assay (Degradation %) 1 μM: compound 1 μM; for Degradation assay (Degradation %) 10 μM: compound 10 μM
T1 sequence (Q8NB16 1-471): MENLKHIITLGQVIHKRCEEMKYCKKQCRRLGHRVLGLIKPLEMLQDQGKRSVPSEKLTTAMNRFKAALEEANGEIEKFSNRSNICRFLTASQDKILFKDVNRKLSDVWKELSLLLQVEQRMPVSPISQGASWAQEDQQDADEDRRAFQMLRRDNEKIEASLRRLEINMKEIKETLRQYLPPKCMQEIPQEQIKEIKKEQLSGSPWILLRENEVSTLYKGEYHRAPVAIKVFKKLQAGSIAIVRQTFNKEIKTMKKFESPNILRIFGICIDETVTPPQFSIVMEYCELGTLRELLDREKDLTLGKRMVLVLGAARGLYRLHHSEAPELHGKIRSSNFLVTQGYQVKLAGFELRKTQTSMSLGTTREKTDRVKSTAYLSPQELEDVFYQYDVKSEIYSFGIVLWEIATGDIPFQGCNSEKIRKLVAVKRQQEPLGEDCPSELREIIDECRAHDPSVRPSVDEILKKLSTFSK
In short: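 After treating HepG2 with test compounds (final 1 μM or 10 μM) for 20-24 h, we lysed cells, equalized protein by BCA and probed MLKL by overnight primary antibody at 4 °C followed by chemiluminescent detection.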

MLKL [2] = target: T1, MLKL; assay: Measurement of binding affinity with MLKL receptor (competitive binding assay, Kd); parameters: made in house; host or cells: HEK 293 cell line (T7 phage in E. coli BL21-derived host is also described)
In short: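 MLKL was produced in HEK 293 cells and tagged with DNA for detection. Liganded beads were blocked with excess biotin and washed to cut non-specific binding, then compounds (111× DMSO stocks, 0.9% DMSO in assay) competed for binding. Eluate kinase was measured by qPCR for Kd.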

FADD−/− Jurkat cells = assay: Necroptosis inhibition assay, TNF-α-induced necroptosis (CellTiter-Glo 2.0); type: cell-based, human; settings: TNF-α 15 ng/mL; for Necroptosis inhibition assay (Rescue %) 1 μM: compound 1 μM; for Necroptosis inhibition assay (Rescue %) 10 μM: compound 10 μM
In short: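 Necroptosis was triggered by TNF-α at 15 ng/mL final following 30 minutes of compound exposure (0.1, 1 or 10 μM final). Incubation ran 20 to 24 hours at 37° C under 5% CO2; cell ATP was then quantified by luminescence.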

## Nc1ncc(-c2cnn(C3CCN(C(=O)c4cn(C5CCN(C(=O)C6CCN(c7cccc8c7C(=O)N(C7CCC(=O)NC7=O)C8=O)CC6)CC5)cn4)CC3)c2)nc1C(=O)O[C@@H](C(=O)Nc1ccc(F)cc1)c1ccccc1 (stereo partly drawn) [TDH-362, (R)-2-((4-fluorophenyl)amino)-2-oxo-1-phenylethyl 3-amino-6-(1-(1-(1-(1-(1-(2-(2,6-dioxopiperidin-3-yl)-1,3-dioxoisoindolin-4-yl)piperidine-4-carbonyl)piperidin-4-yl)-1H-imidazole-4-carbonyl)piperidin-4-yl)-1H-pyrazol-4-yl)pyrazine-2-carboxylate]
MLKL [1]
  Degradation assay (Degradation %) 1 μM: 69.87%
  Degradation assay (Degradation %) 10 μM: 69.78%
MLKL [2]
  Kd: 5.5 nM
FADD−/− Jurkat cells
  Necroptosis inhibition assay (Rescue %) 1 μM: 17.89%
  Necroptosis inhibition assay (Rescue %) 10 μM: 16.12%

## Nc1ncc(-c2cnn(C3CCN(CCCN4CCN(C(=O)CNc5ccc6c(c5)C(=O)N(C5CCC(=O)NC5=O)C6=O)CC4)CC3)c2)nc1C(=O)OC(C(=O)Nc1ccc(F)cc1)c1ccccc1 (centres unmarked) [TDH-242, 2-((4-fluorophenyl)amino)-2-oxo-1-phenylethyl 3-amino-6-(1-(1-(3-(4-((2-(2,6-dioxopiperidin-3-yl)-1,3-dioxoisoindolin-5-yl)glycyl)piperazin-1-yl)propyl)piperidin-4-yl)-1H-pyrazol-4-yl)pyrazine-2-carboxylate]
MLKL [1]
  Degradation assay (Degradation %) 1 μM: 75.75%
  Degradation assay (Degradation %) 10 μM: 66.84%
MLKL [2]
  Kd: 2.5 nM
FADD−/− Jurkat cells
  Necroptosis inhibition assay (Rescue %) 1 μM: 71.4%
  Necroptosis inhibition assay (Rescue %) 10 μM: 44.8%

## Nc1ncc(-c2cnn(C3CCN(CCC4CCN(C(=O)Cc5cccc(NC6=CC(=O)N(C7CCC(=O)NC7=O)C6=O)c5)CC4)CC3)c2)nc1C(=O)O[C@@H](C(=O)Nc1ccc(F)cc1)c1ccccc1 (stereo partly drawn) [TDH-518, (R)-2-((4-fluorophenyl)amino)-2-oxo-1-phenylethyl 3-amino-6-(1-(1-(2-(1-(2-(3-((1-(2,6-dioxopiperidin-3-yl)-2,5-dioxo-2,5-dihydro-1H-pyrrol-3-yl)amino)phenyl)acetyl)piperidin-4-yl)ethyl)piperidin-4-yl)-1H-pyrazol-4-yl)pyrazine-2-carboxylate]
MLKL [1]
  Degradation assay (Degradation %) 1 μM: 89.77%
  Degradation assay (Degradation %) 10 μM: 88.59%
MLKL [2]
  Kd: 4.3 nM
FADD−/− Jurkat cells; FADD−/− Jurkat cells
  Necroptosis inhibition assay (Rescue %) 1 μM: 12.44%
  Necroptosis inhibition assay (Rescue %) 10 μM: −8.57%

## Nc1ncc(-c2cnn(C3CCN(CC4CCN(c5ccc6nnn(C7CCC(=O)NC7=O)c(=O)c6c5)CC4)CC3)c2)nc1C(=O)O[C@@H](C(=O)Nc1ccc(F)cc1)c1ccccc1 (stereo partly drawn) [TDH-172, (R)-2-((4-fluorophenyl)amino)-2-oxo-1-phenylethyl 3-amino-6-(1-(1-((1-(3-(2,6-dioxopiperidin-3-yl)-4-oxo-3,4-dihydrobenzo[d][1,2,3]triazin-6-yl)piperidin-4-yl)methyl)piperidin-4-yl)-1H-pyrazol-4-yl)pyrazine-2-carboxylate]
MLKL [1]
  Degradation assay (Degradation %) 1 μM: 59.24%
  Degradation assay (Degradation %) 10 μM: 57.1%
MLKL [2]
  Kd: 26 nM
FADD−/− Jurkat cells
  Necroptosis inhibition assay (Rescue %) 1 μM: 85.53%
  Necroptosis inhibition assay (Rescue %) 10 μM: 74.34%

## Nc1ncc(-c2cnn([C@H]3CCN(CCOCCOCCNC(=O)CNc4ccc5c(c4)C(=O)N(C4CCC(=O)NC4=O)C5=O)C3)c2)nc1C(=O)OC(C(=O)Nc1ccc(F)cc1)c1ccccc1 (stereo partly drawn) [TDH-264, 2-((4-fluorophenyl)amino)-2-oxo-1-phenylethyl 3-amino-6-(1-((3S)-1-(2-(2-(2-(2-((2-(2,6-dioxopiperidin-3-yl)-1,3-dioxoisoindolin-5-yl)amino)acetamido)ethoxy)ethoxy)ethyl)pyrrolidin-3-yl)-1H-pyrazol-4-yl)pyrazine-2-carboxylate]
MLKL [1]
  Degradation assay (Degradation %) 1 μM: 65.05%
  Degradation assay (Degradation %) 10 μM: 53.98%
MLKL [2]
  Kd: 3.4 nM
FADD−/− Jurkat cells
  Necroptosis inhibition assay (Rescue %) 1 μM: 23.38%
  Necroptosis inhibition assay (Rescue %) 10 μM: 40.72%

## Nc1ncc(-c2cnn(C3CCN(CCCN4CC5CC4CN5C(=O)COc4ccc5c(c4)C(=O)N(C4CCC(=O)NC4=O)C5=O)CC3)c2)nc1C(=O)O[C@@H](C(=O)Nc1ccc(F)cc1)c1ccccc1 (stereo partly drawn) [TDH-453, (R)-2-((4-fluorophenyl)amino)-2-oxo-1-phenylethyl 3-amino-6-(1-(1-(3-(5-(2-((2-(2,6-dioxopiperidin-3-yl)-1,3-dioxoisoindolin-5-yl)oxy)acetyl)-2,5-diazabicyclo[2.2.1]heptan-2-yl)propyl)piperidin-4-yl)-1H-pyrazol-4-yl)pyrazine-2-carboxylate]
MLKL [1]
  Degradation assay (Degradation %) 1 μM: 74.72%
  Degradation assay (Degradation %) 10 μM: 92.96%
MLKL [2]
  Kd: 0.64 nM
FADD−/− Jurkat cells; FADD−/− Jurkat cells
  Necroptosis inhibition assay (Rescue %) 1 μM: 51.32%
  Necroptosis inhibition assay (Rescue %) 10 μM: 49.41%

## Nc1ncc(-c2cnn(C3CCN(CCCC4CCN(C(=O)CNc5ccc6c(c5)C(=O)N(C5CCC(=O)NC5=O)C6=O)CC4)CC3)c2)nc1C(=O)O[C@@H](C(=O)Nc1ccc(F)cc1)c1ccccc1 (stereo partly drawn) [TDH-483, (R)-2-((4-fluorophenyl)amino)-2-oxo-1-phenylethyl 3-amino-6-(1-(1-(3-(1-((2-(2,6-dioxopiperidin-3-yl)-1,3-dioxoisoindolin-5-yl)glycyl)piperidin-4-yl)propyl)piperidin-4-yl)-1H-pyrazol-4-yl)pyrazine-2-carboxylate]
MLKL [1]
  Degradation assay (Degradation %) 1 μM: 86.34%
  Degradation assay (Degradation %) 10 μM: 84.54%
MLKL [2]
  Kd: 2.5 nM
FADD−/− Jurkat cells; FADD−/− Jurkat cells
  Necroptosis inhibition assay (Rescue %) 1 μM: 62.95%
  Necroptosis inhibition assay (Rescue %) 10 μM: 37.9%

## Nc1ncc(-c2cnn([C@H]3CCN(CC4CCN(C(=O)COc5cccc6c5C(=O)N(C5CCC(=O)NC5=O)C6=O)CC4)C3)c2)nc1C(=O)OC(C(=O)Nc1ccc(F)cc1)c1ccccc1 (stereo partly drawn) [TDH-283, 2-((4-fluorophenyl)amino)-2-oxo-1-phenylethyl 3-amino-6-(1-((3S)-1-((1-(2-((2-(2,6-dioxopiperidin-3-yl)-1,3-dioxoisoindolin-4-yl)oxy)acetyl)piperidin-4-yl)methyl)pyrrolidin-3-yl)-1H-pyrazol-4-yl)pyrazine-2-carboxylate]
MLKL [1]
  Degradation assay (Degradation %) 1 μM: 4.29%
  Degradation assay (Degradation %) 10 μM: 31.1%
MLKL [2]
  Kd: 2.1 nM
FADD−/− Jurkat cells
  Necroptosis inhibition assay (Rescue %) 1 μM: 44.29%
  Necroptosis inhibition assay (Rescue %) 10 μM: 54.92%

## Nc1ncc(-c2cnn([C@@H]3CCN(CC4CCN(C(=O)COc5ccc6c(c5)C(=O)N(C5CCC(=O)NC5=O)C6=O)CC4)C3)c2)nc1C(=O)O[C@@H](C(=O)Nc1ccc(F)cc1)c1ccccc1 (stereo partly drawn) [TDH-359, (R)-2-((4-fluorophenyl)amino)-2-oxo-1-phenylethyl 3-amino-6-(1-((3R)-1-((1-(2-((2-(2,6-dioxopiperidin-3-yl)-1,3-dioxoisoindolin-5-yl)oxy)acetyl)piperidin-4-yl)methyl)pyrrolidin-3-yl)-1H-pyrazol-4-yl)pyrazine-2-carboxylate]
MLKL [1]
  Degradation assay (Degradation %) 1 μM: 92.98%
  Degradation assay (Degradation %) 10 μM: 85.17%
MLKL [2]
  Kd: 1.7 nM
FADD−/− Jurkat cells; compound 1.1 µM
  Necroptosis inhibition assay (Rescue %) 1.1 μM: 67.68 (1.1 µM) %
FADD−/− Jurkat cells
  Necroptosis inhibition assay (Rescue %) 10 μM: 40.02%

## Nc1ncc(-c2cnn(C3CCN(CCC4CCN(C(=O)CC5CCN(c6cccc7c6C(=O)N(C6CCC(=O)NC6=O)C7=O)CC5)CC4)CC3)c2)nc1C(=O)O[C@@H](C(=O)Nc1ccc(F)cc1)c1ccccc1 (stereo partly drawn) [TDH-366, (R)-2-((4-fluorophenyl)amino)-2-oxo-1-phenylethyl 3-amino-6-(1-(1-(2-(1-(2-(1-(2-(2,6-dioxopiperidin-3-yl)-1,3-dioxoisoindolin-4-yl)piperidin-4-yl)acetyl)piperidin-4-yl)ethyl)piperidin-4-yl)-1H-pyrazol-4-yl)pyrazine-2-carboxylate]
MLKL [1]
  Degradation assay (Degradation %) 1 μM: 87.27%
  Degradation assay (Degradation %) 10 μM: 80.23%
MLKL [2]
  Kd: 1.2 nM
FADD−/− Jurkat cells
  Necroptosis inhibition assay (Rescue %) 1 μM: 45.56%
  Necroptosis inhibition assay (Rescue %) 10 μM: 22.39%
